Results: paper PMC9505425, “Targeting of the Mitochondrial TET1 Protein by Pyrrolo[3,2-b]pyrrole Chelators” (International Journal of Molecular Sciences, 2022)
pIC50: −log10 of the molar value. Where “and” joins values, the source holds several entries; their conditions need not be identical. Equal values may be shown once.

Legend:
[1] = system: Caov-3 cells; assay: MTT cytotoxicity assay, Caov-3; assay type: cell-based, human
Experimental: (§1) The effects of the tested compounds 1–6 on HF-P4, U-118 MG, H1299, BT-20, and Caov-3 cell lines were evaluated by the MTT assay during 48 h treatment (Table 2 and Tables S2–S31). In all tested compounds, we recognized a difference in cytotoxicity between healthy cells (HF-P4) and cancer cell lines (BT-20, Caov-3, and H-1299). […] In the case of ovarian cancer, the authors discovered oncogenic and poor prognosis roles of TET1 in epithelial ovarian carcinoma (EOC). TET1 is believed to demethylate the epigenome and activate numerous oncogenic pathways in EOC. The aforementioned study presents a new mechanism where TET1 contributes to tumor development through collaboration with CK2α [21]. The overexpression of the TET1 protein was also found in triple negative breast cancer and was associated with an activation of PI3K/mTOR pathway and decreased overall survival.
The human ovary adenocarcinoma cell line (Caov-3), purchased from ATCC (Caov-3 (ATCC® HTB-75™), Manassas, VA, USA), was used for the cytotoxicity assay (MTT). Caov-3 cells were cultivated under standard conditions in Dulbecco’s modified Eagle’s medium (ATCC, Manassas, VA, USA) supplemented with 10% FBS and streptomycin (100 μg/mL) at 37 °C at a 5% CO2 atmosphere.
(§2) For the cytotoxicity assay, we used the following cell lines: human glioblastoma cell line U118-MG, human mammary gland/breast cell line BT-20, human ovary adenocarcinoma cell line Caov-3, and non-small-cell lung carcinoma H-1299. As previously mentioned, these cell lines contain a high level of the TET1 protein, which corresponds to a lower overall survival. In addition to these cell cultures, we used the human dermal fibroblast cell line HF-P4 as a healthy control. Determination of cytotoxicity was performed using the MTT [3-(4,5-dimethylthiazol-2-yl)-2,5-diphenyltetrazolium bromide] colorimetric assay. Viable cells from each cell line were cultured in 96-well plates (VWR, Stříbrná Skalice, Czech Republic) at a density of 1.0 × 10^5 cells per well and allowed to grow for 24 h in 200 μL of recommended medium. After a 1-day incubation, the medium was replaced with solutions of compounds 1–6 at concentration ranges of 0.1–20 μM. Each concentration was measured four times within one test, and the entire test was repeated three times. Tested compounds 1–6 were dissolved in DMSO and then diluted with corresponding medium to a final volume of 200 μL (maximum 1% DMSO). After 48 h exposure, cells were treated with 175 μL of MTT solution (P-LAB, Prague, Czech Republic) for 2 h. In the next step, MTT solution was removed, and 125 μL of DMSO (Penta, Prague, Czech Republic) was added to solubilize dark crystals of formazan formed in intact cells, and absorbance was measured at 570 nm by the enzyme-linked immunoabsorbent assay reader Infinite® 200 PRO (Tecan, Männedorf, Switzerland). The final DMSO concentration was smaller than 1% (v/v). The absorbance of untreated cells was considered 100%, and IC50 values were calculated by the GraphPad Prism 8 software. As a parameter for cytotoxicity, we used a concentration that inhibits 50% of cell growth (IC50).

[2] = system: BT-20 cells; assay: MTT cytotoxicity assay, BT-20; assay type: cell-based, human
Experimental: as §1
The human mammary gland/breast cell line (BT-20), purchased from ATCC (BT-20 (ATCC® HTB-19™), Manassas, VA, USA), was used for the cytotoxicity assay (MTT), and BT-20 cells were cultivated under standard conditions in Eagle’s minimum essential medium (ATCC, Manassas, VA, USA) supplemented with 10% FBS and streptomycin (100 μg/mL) at 37 °C at a 5% CO2 atmosphere.
as §2

Cc1ccc(-n2c(-c3ccc(C(=O)N/N=C/c4cc(F)ccc4O)cc3)cc3c2cc(-c2ccc(C(=O)N/N=C/c4cc(F)ccc4O)cc2)n3-c2ccc(C)cc2)cc1 [Compound 3]
Cell viability % ([1]; Caov-3, 100 nM, 48 h, repeats, 0.1 µM): 80.39% and 71.14% | Cell viability % ([1]; Caov-3, 500 nM, 48 h, repeats, 0.5 µM): 93.5% and 75.39% and 98.76% | Cell viability % ([1]; Caov-3, 750 nM, 48 h, repeats, 0.75 µM): 86.6015% and 81.49% and 112.9009% | Cell viability % ([1]; Caov-3, 1 uM, 48 h, repeats, 1 µM): 86.92% and 97.81% | Cell viability % ([1]; Caov-3, 2.5 uM, 48 h, repeats, 2.5 µM): 89.39% and 98.69% | Cell viability % ([1]; Caov-3, 5 uM, 48 h, repeats, 5 µM): 67.61% and 86.52% | Cell viability % ([1]; Caov-3, 7.5 uM, 48 h, repeats, 7.5 µM): 83.04% and 61.94% and 104.0087% | Cell viability % ([1]; Caov-3, 10 uM, 48 h, repeats, 10 µM): 67.37% and 81.12% | Cell viability % ([1]; Caov-3, 15 uM, 48 h, repeats, 15 µM): 57.51% and 62.97% | Cell viability % ([1]; Caov-3, 20 uM, 48 h, repeats, 20 µM): 34.98% and 37.9% | viability at 0.1 µM ([1]; Homo sapiens, Caov-3, 48 h, Caov-3, 100 nM, repeats, read-out: Cell viability %): 84.4% | viability at 1 µM ([1]; Homo sapiens, Caov-3, 48 h, Caov-3, 1 uM, repeats, read-out: Cell viability %): 89.4% | viability at 2.5 µM ([1]; Homo sapiens, Caov-3, 48 h, Caov-3, 2.5 uM, repeats, read-out: Cell viability %): 85.3% | viability at 5 µM ([1]; Homo sapiens, Caov-3, 48 h, Caov-3, 5 uM, repeats, read-out: Cell viability %): 70.6% | viability at 10 µM ([1]; Homo sapiens, Caov-3, 48 h, Caov-3, 10 uM, repeats, read-out: Cell viability %): 65.4% | viability at 15 µM ([1]; Homo sapiens, Caov-3, 48 h, Caov-3, 15 uM, repeats, read-out: Cell viability %): 59% | viability at 20 µM ([1]; Homo sapiens, Caov-3, 48 h, Caov-3, 20 uM, repeats, read-out: Cell viability %): 35.5% | pIC50 ([1]; Homo sapiens, Caov-3, MTT, 48 h): 4.75 | Cell viability % ([2]; BT-20, 100 nM, 48 h, repeats, 0.1 µM): 73.86% and 70.55% | Cell viability % ([2]; BT-20, 500 nM, 48 h, repeats, 0.5 µM): 90.62% and 106.8284% | Cell viability % ([2]; BT-20, 750 nM, 48 h, repeats, 0.75 µM): 90.49% and 101.3318% | Cell viability % ([2]; BT-20, 1 uM, 48 h, repeats, 1 µM): 95.2857% and 94.7% | Cell viability % ([2]; BT-20, 2.5 uM, 48 h, repeats, 2.5 µM): 99.34% and 98.89% | Cell viability % ([2]; BT-20, 5 uM, 48 h, repeats, 5 µM): 91.79% and 101.4304% | Cell viability % ([2]; BT-20, 7.5 uM, 48 h, repeats, 7.5 µM): 71.93% and 72.16% | Cell viability % ([2]; BT-20, 10 uM, 48 h, repeats, 10 µM): 60.86% and 57.19% | Cell viability % ([2]; BT-20, 15 uM, 48 h, repeats, 15 µM): 53.94% and 48.1349% | Cell viability % ([2]; BT-20, 20 uM, 48 h, repeats, 20 µM): 33.39% and 29.51% | viability at 0.1 µM ([2]; Homo sapiens, BT-20, 48 h, BT-20, 100 nM, repeats, read-out: Cell viability %): 83.4% | viability at 0.5 µM ([2]; Homo sapiens, BT-20, 48 h, BT-20, 500 nM, repeats, read-out: Cell viability %): 95.3% | viability at 0.75 µM ([2]; Homo sapiens, BT-20, 48 h, BT-20, 750 nM, repeats, read-out: Cell viability %): 99.7% | viability at 1 µM ([2]; Homo sapiens, BT-20, 48 h, BT-20, 1 uM, repeats, read-out: Cell viability %): 104% | viability at 2.5 µM ([2]; Homo sapiens, BT-20, 48 h, BT-20, 2.5 uM, repeats, read-out: Cell viability %): 99.4% | viability at 5 µM ([2]; Homo sapiens, BT-20, 48 h, BT-20, 5 uM, repeats, read-out: Cell viability %): 85.1% | viability at 7.5 µM ([2]; Homo sapiens, BT-20, 48 h, BT-20, 7.5 uM, repeats, read-out: Cell viability %): 73.1% | viability at 10 µM ([2]; Homo sapiens, BT-20, 48 h, BT-20, 10 uM, repeats, read-out: Cell viability %): 62.9% | viability at 15 µM ([2]; Homo sapiens, BT-20, 48 h, BT-20, 15 uM, repeats, read-out: Cell viability %): 48.9% | viability at 20 µM ([2]; Homo sapiens, BT-20, 48 h, BT-20, 20 uM, repeats, read-out: Cell viability %): 41% | pIC50 ([2]; Homo sapiens, BT-20, MTT, 48 h): 4.86
